Assays:
Format in all cases: in vivo
[1] = tested on: fall armyworm (Spodoptera frugiperda); assay: Test B: control of fall armyworm on corn (maize) plant, foliar spray; details: sprayed at 50 ppm; 1-day-old larvae on corn; replicated three times
Experimental: (§1) Test compounds were formulated using a solution containing 10% acetone, 90% water and 300 ppm X-77™ Spreader Lo-Foam Formula non-ionic surfactant containing alkylarylpolyoxyethylene, free fatty acids, glycols and isopropanol (Loveland Industries, Inc. Greeley, Colo., USA). The formulated compounds were applied in 1 mL of liquid through a SUJ2 atomizer nozzle with ⅛ JJ custom body (Spraying Systems Co. Wheaton, Ill., USA) positioned 1.27 cm (0.5 inches) above the top of each test unit. All experimental compounds in these tests were sprayed at 50 ppm, and the test was replicated three times. After spraying of the formulated test compound, each test unit was allowed to dry for 1 h and then a black, screened cap was placed on top. The test units were held for 6 days in a growth chamber at 25° C. and 70% relative humidity. Plant feeding damage was then visually assessed based on foliage consumed and a pest mortality rating was also counted and calculated for each test unit.
For evaluating control of fall armyworm (Spodoptera frugiperda) the test unit consisted of a small open container with a 4-5-day-old corn (maize) plant inside. This was pre-infested (using a core sampler) with 10-15 1-day-old larvae on a piece of insect diet. Test compounds were formulated and sprayed at 50 ppm as described for Test A and replicated three times. After spraying, the test units were maintained in a growth chamber and then the control efficacy was rated for each test unit as described for Test A.

[2] = tested on: diamondback moth (Plutella xylostella); assay: Test A: control of diamondback moth on radish plant, foliar spray; details: sprayed at 50 ppm; neonate larvae on radish; assessed after 6 days; replicated three times
From the text: For evaluating control of diamondback moth (Plutella xylostella) the test unit consisted of a small open container with a 12-14-day-old radish plant inside. This was pre-infested with about 50 neonate larvae that were dispensed into the test unit via corn-cob grits using a bazooka inoculator. The larvae moved onto the test plant after being dispensed into the test unit.
as §1

[3] = tested on: western flower thrips (Frankliniella occidentalis); assay: Test E: control of western flower thrips on Soleil bean plant, contact and/or systemic; details: adult thrips, assessed after 6 days, replicated three times
Experimental: as §1
For evaluating control of the western flower thrips (Frankliniella occidentalis) through contact and/or systemic means, the test unit consisted of a small open container with a 5-7 day old Soleil Bean plant inside. Test compounds were formulated and sprayed as described for Test A. All experimental compounds in these tests were sprayed at 250 or 50 ppm as noted, and the test was replicated three times. After spraying, the test units were allowed to dry for 1 hour and then 22-27 adult thrips were added to each unit and then a black, screened cap was placed on top. The test units were held for 6 days at 25° C. and 45-55% relative humidity. A mortality rating was assessed along with a plant damage rating for each test unit.

Row | SMILES | control efficacy (feeding damage or mortality): very good to excellent levels [1] | control efficacy (feeding damage or mortality): very good to excellent levels [2] | control efficacy (feeding damage or mortality): very good to excellent levels ([3]; sprayed at 250 ppm) | control efficacy (feeding damage or mortality): very good to excellent levels ([3]; sprayed at 50 ppm)
1 | O=C(NCC(Cl)CCCCl)c1ccc(C2=NOC(c3cc(Cl)cc(Cl)c3)(C(F)(F)F)C2)c2ccccc12 (mixture of isomers) [Compound 14] | 20% or less feeding damage or 80% or more mortality | 20% or less feeding damage or 80% or more mortality | – | –
2 | CCC(CO)NC(=O)c1ccc(C2=NOC(c3cccc(C(F)(F)F)c3)(C(F)(F)F)C2)c2ccccc12 (mixture of isomers) [Compound 16] | 20% or less feeding damage or 80% or more mortality | 20% or less feeding damage or 80% or more mortality | – | –
3 | CC(NC(=O)c1ccc(C2=NOC(c3cc(C(F)(F)F)cc(C(F)(F)F)c3)(C(F)(F)F)C2)c2ccccc12)C(=O)O (mixture of isomers) [Compound 31] | 20% or less feeding damage or 80% or more mortality | 20% or less feeding damage or 80% or more mortality | 20% or less feeding damage or 80% or more mortality | –
4 | CC(NC(=O)c1ccc(C2=NOC(c3cc(Cl)cc(C(F)(F)F)c3)(C(F)(F)F)C2)c2ccccc12)C(=O)O (mixture of isomers) [Compound 32] | 20% or less feeding damage or 80% or more mortality | 20% or less feeding damage or 80% or more mortality | – | –
5 | CC(NC(=O)c1ccc(C2=NOC(c3cc(Br)cc(C(F)(F)F)c3)(C(F)(F)F)C2)c2ccccc12)C(=O)O (mixture of isomers) [Compound 38] | 20% or less feeding damage or 80% or more mortality | 20% or less feeding damage or 80% or more mortality | – | –
6 | CC(=O)N(C)CCCNC(=O)c1ccc(C2=NOC(c3cc(Cl)cc(Cl)c3)(C(F)(F)F)C2)c2ccccc12 (racemic) [Compound 4] | 20% or less feeding damage or 80% or more mortality | 20% or less feeding damage or 80% or more mortality | 20% or less feeding damage or 80% or more mortality | 20% or less feeding damage or 80% or more mortality
7 | O=C(O)CNC(=O)c1ccc(C2=NOC(c3cc(C(F)(F)F)cc(C(F)(F)F)c3)(C(F)(F)F)C2)c2ccccc12 (racemic) [Compound 15] | 20% or less feeding damage or 80% or more mortality | 20% or less feeding damage or 80% or more mortality | – | –
8 | O=C(NCCCSCC(F)(F)F)c1ccc(C2=NOC(c3cccc(C(F)(F)F)c3)(C(F)(F)F)C2)c2ccccc12 (racemic) [Compound 21] | 20% or less feeding damage or 80% or more mortality | 20% or less feeding damage or 80% or more mortality | – | –
9 | O=C(NCCSCC(F)(F)F)c1ccc(C2=NOC(c3cccc(C(F)(F)F)c3)(C(F)(F)F)C2)c2ccccc12 (racemic) [Compound 22] | 20% or less feeding damage or 80% or more mortality | 20% or less feeding damage or 80% or more mortality | 20% or less feeding damage or 80% or more mortality | 20% or less feeding damage or 80% or more mortality
10 | O=C(NCCn1ccc(C(F)(F)F)n1)c1ccc(C2=NOC(c3cccc(C(F)(F)F)c3)(C(F)(F)F)C2)c2ccccc12 (centres unmarked) [Compound 17] | 20% or less feeding damage or 80% or more mortality | 20% or less feeding damage or 80% or more mortality | – | –
11 | O=C(NCCn1cncn1)c1ccc(C2=NOC(c3cccc(C(F)(F)F)c3)(C(F)(F)F)C2)c2ccccc12 (centres unmarked) [Compound 18] | 20% or less feeding damage or 80% or more mortality | 20% or less feeding damage or 80% or more mortality | – | –
12 | CC1(C)OCC(CNC(=O)c2ccc(C3=NOC(c4cccc(C(F)(F)F)c4)(C(F)(F)F)C3)c3ccccc23)O1 (centres unmarked) [Compound 19] | 20% or less feeding damage or 80% or more mortality | 20% or less feeding damage or 80% or more mortality | – | –
13 | O=C(NCC1CCCO1)c1ccc(C2=NOC(c3cccc(C(F)(F)F)c3)(C(F)(F)F)C2)c2ccccc12 (centres unmarked) [Compound 20] | 20% or less feeding damage or 80% or more mortality | 20% or less feeding damage or 80% or more mortality | – | –
14 | O=C(NCC1CCCO1)c1ccc(C2=NOC(c3cc(C(F)(F)F)cc(C(F)(F)F)c3)(C(F)(F)F)C2)c2ccccc12 (centres unmarked) [Compound 27] | 20% or less feeding damage or 80% or more mortality | 20% or less feeding damage or 80% or more mortality | – | –
15 | O=C(CNC(=O)c1ccc(C2=NOC(c3cc(Cl)cc(Cl)c3)(C(F)(F)F)C2)c2ccccc12)NCC1CC1 (centres unmarked) [Compound 44] | 20% or less feeding damage or 80% or more mortality | 20% or less feeding damage or 80% or more mortality | 20% or less feeding damage or 80% or more mortality | 20% or less feeding damage or 80% or more mortality
16 | O=C(CNC(=O)c1ccc(C2=NOC(c3cc(Cl)cc(Cl)c3)(C(F)(F)F)C2)c2ccccc12)NC1CCCCC1 (centres unmarked) [Compound 51] | 20% or less feeding damage or 80% or more mortality | 20% or less feeding damage or 80% or more mortality | – | –
17 | O=C(CNC(=O)c1ccc(C2=NOC(c3cc(Cl)cc(Cl)c3)(C(F)(F)F)C2)c2ccccc12)NC1CCCC1 (centres unmarked) [Compound 52] | 20% or less feeding damage or 80% or more mortality | 20% or less feeding damage or 80% or more mortality | – | –
18 | O=C(CNC(=O)c1ccc(C2=NOC(c3cccc(C(F)(F)F)c3)(C(F)(F)F)C2)c2ccccc12)NC1CC1 (centres unmarked) [Compound 54] | 20% or less feeding damage or 80% or more mortality | 20% or less feeding damage or 80% or more mortality | – | –
19 | O=C(CNC(=O)c1ccc(C2=NOC(c3cccc(Br)c3)(C(F)(F)F)C2)c2ccccc12)NCC1CC1 (centres unmarked) [Compound 56] | 20% or less feeding damage or 80% or more mortality | 20% or less feeding damage or 80% or more mortality | – | –
20 | O=C(CNC(=O)c1ccc(C2=NOC(c3cccc(OC(F)(F)F)c3)(C(F)(F)F)C2)c2ccccc12)NCC1CC1 (centres unmarked) [Compound 60] | 20% or less feeding damage or 80% or more mortality | 20% or less feeding damage or 80% or more mortality | – | –
21 | O=C(NCC(=O)N1CCCC1C(F)(F)F)c1ccc(C2=NOC(c3cc(Cl)cc(Cl)c3)(C(F)(F)F)C2)c2ccccc12 (centres unmarked) [Compound 91] | 20% or less feeding damage or 80% or more mortality | 20% or less feeding damage or 80% or more mortality | – | –
22 | O=C(NCC(F)(F)F)[C@H]1CCCN1C(=O)c1ccc(C2=NOC(c3cc(Cl)cc(Cl)c3)(C(F)(F)F)C2)c2ccccc12 (some centres unmarked) [Compound 102] | 20% or less feeding damage or 80% or more mortality | 20% or less feeding damage or 80% or more mortality | – | –
23 | Cn1ccc2c(C(=O)NCC[S+](C)[O-])ccc(C3=NOC(c4cc(Cl)cc(Cl)c4)(C(F)(F)F)C3)c21 (centres unmarked) [Compound 111] | 20% or less feeding damage or 80% or more mortality | 20% or less feeding damage or 80% or more mortality | – | –
